{"source": "patent US5650412A", "about": "“HIV protease inhibitors useful for the treatment of AIDS” (Merck & Co., Inc., priority 1995, dated 1997)", "key": {"HIV protease": {"target": "T1, HIV protease (Human immunodeficiency virus type 1 group M subtype B, UniProt P04585)", "T1 construct": "made in house; host or cells: Escherichia coli", "experiment": "Inhibition of Microbial Expressed HIV Protease (protease expressed in Escherichia coli, peptide substrate, HPLC of products)", "type": "biochemical", "settings": "50 mM Na acetate, pH 5.5, 30° C., 1 hour", "experimental": "Assay for Inhibition of Microbial Expressed HIV Protease\nInhibition studies of the reaction of the protease expressed in Eschericia coli with a peptide substrate [Val-Ser-Gln-Asn-(betanaphyl)Ala-Pro-Ile-Val, 0.5 mg/mL at the time the reaction is initiated] were in 50 mM Na acetate, pH 5.5, at 30° C. for 1 hour. Various concentrations of inhibitor in […] DMSO were added to […] of the peptide solution in water. The reaction is initiated by the addition of […] of 0.33 nM protease (0.11 ng) in a solution of 0.133M Na acetate pH 5.5 and 0.1% bovine serum albumin. The reaction was quenched with […] of 5% phosphoric acid. Products of the reaction were separated by HPLC (VYDAC wide pore 5 cm C-18 reverse phase, acetonitrile gradient, 0.1% phosphoric acid). The extent of inhibition of the reaction was determined from the peak heights of the products."}, "HIV-1": {"test_system": "HIV-1", "experiment": "Cell spread assay: inhibition of the spread of HIV in MT-4 T-lymphoid cell culture", "type": "cell-based", "settings": "Human immunodeficiency virus 1, 72 h; MT-4 T-lymphoid cells, HIV-1 wild-type, 3 days with inhibitor, p24 accumulation; read-out: CIC95 (inhibitor concentration which reduced the spread of infection by at least 95%)", "experimental": "Inhibition of the spread of HIV in cell culture was measured according to Nunberg, J. H. et al., J. Virol. 65, 4887 (1991). In this assay, MT-4 T-lymphoid cells were infected with HIV-1 (wild-type, unless otherwise indicated) by using a predetermined inoculum, and cultures were incubated for 24 h. At this time, ≤1% of the cells were positive by indirect immunofluorescence. Cells were then extensively washed and distributed into 96-well culture dishes. Serial twofold dilutions of inhibitor were added to the wells, and cultures were continued for 3 additional days. At 4 days postinfection, 100% of the cells in control cultures were infected. HIV-1 p24 accumulation was directly correlated with virus spread. The cell culture inhibitory concentration was defined as the inhibitor concentration in nanomoles/liter which reduced the spread of infection by at least 95%, or CIC95. The CIC95 for compound A is 25 nM.\nINHIBITION OF VIRUS SPREAD\nA. Preparation of HIV-infected MT-4 cell Suspension […]\nThe concentration of HIV p24 antigen is measured by an enzyme immunoassay, described as follows. Aliquots of p24 antigen to be measured are added to microwells coated with a monoclonal antibody specific for HIV core antigen. […]"}}}
{"smiles": "COc1cc(CN2CCN(C[C@@H](O)[C@H](Cc3ccccc3)NC(=O)O[C@@H]3CCS(=O)(=O)[C@@H]3C(C)C)[C@H](C(=O)NC(C)(C)C)C2)cc2c1OCO2", "note": "[Compound A, N-tert-butyl-1-[2'(R)-hydroxy-4'-phenyl-3'(S)-[3\"(R)-[1'\",1'\"-dioxo-2'\"(R)-methylethyl]tetrahydrothienyloxycarbonylamino]butyl]-4-[(3'-methoxy-4',5'-methylenedioxyphenyl)methyl]piperazine-2(S)-carboxamide]", "values": [{"measurement": "IC50", "setting": "HIV protease", "result": "~1.2", "unit": "nM"}, {"measurement": "IC95", "setting": "HIV-1", "result": 25, "unit": "nM"}]}
